In patent US8980311B2, “Liposome-mediated ligation” (University of Georgia Research Foundation, Inc., priority 2006, dated 2015):
Where a SMILES comes first, the peptide text is derived from it. The star is where a group is joined. Propyl(2R-PamO,3-PamO) = CCCCCCCCCCCCCCCC(=O)OC[C@H](C*)OC(=O)CCCCCCCCCCCCCCC; Palmitoyl = CCCCCCCCCCCCCCCC(=O)*; SBn = c1ccc(CS*)cc1

Conditions: phosphate buffer containing 6 M guanidinium-hydrochloride

## CCCCCCCCCCCCCCCC(=O)N[C@@H](CSC[C@@H](COC(=O)CCCCCCCCCCCCCCC)OC(=O)CCCCCCCCCCCCCCC)C(=O)N[C@@H](CO)C(=O)N[C@@H](CCCCN)C(=O)N[C@@H](CCCCN)C(=O)N[C@@H](CCCCN)C(=O)N[C@@H](CCCCN)C(=O)NCC(=O)SCc1ccccc1 [Compound 6] (Palmitoyl-C(Propyl(2R-PamO,3-PamO))SKKKKG-SBn)
  solubility: poor solubility
